In US20240116985A1, “STAPLED PEPTIDES AND METHODS THEREOF” (priority 2020, published 2024):

Legend:
[1] = target: T1, full-length beta-Catenin (Uniprot ID P35222) (Homo sapiens, UniProt P35222); assay: Fluorescence polarization IC50 (beta-catenin / 5FAM-TCF4 10-53 competition); assay type: binding; conditions: fluorescence polarization; read-out: beta-Catenin FP IC50
T1 construct: 10 nM full-length beta-Catenin (Uniprot ID P35222)
T1 sequence (P35222 1-781): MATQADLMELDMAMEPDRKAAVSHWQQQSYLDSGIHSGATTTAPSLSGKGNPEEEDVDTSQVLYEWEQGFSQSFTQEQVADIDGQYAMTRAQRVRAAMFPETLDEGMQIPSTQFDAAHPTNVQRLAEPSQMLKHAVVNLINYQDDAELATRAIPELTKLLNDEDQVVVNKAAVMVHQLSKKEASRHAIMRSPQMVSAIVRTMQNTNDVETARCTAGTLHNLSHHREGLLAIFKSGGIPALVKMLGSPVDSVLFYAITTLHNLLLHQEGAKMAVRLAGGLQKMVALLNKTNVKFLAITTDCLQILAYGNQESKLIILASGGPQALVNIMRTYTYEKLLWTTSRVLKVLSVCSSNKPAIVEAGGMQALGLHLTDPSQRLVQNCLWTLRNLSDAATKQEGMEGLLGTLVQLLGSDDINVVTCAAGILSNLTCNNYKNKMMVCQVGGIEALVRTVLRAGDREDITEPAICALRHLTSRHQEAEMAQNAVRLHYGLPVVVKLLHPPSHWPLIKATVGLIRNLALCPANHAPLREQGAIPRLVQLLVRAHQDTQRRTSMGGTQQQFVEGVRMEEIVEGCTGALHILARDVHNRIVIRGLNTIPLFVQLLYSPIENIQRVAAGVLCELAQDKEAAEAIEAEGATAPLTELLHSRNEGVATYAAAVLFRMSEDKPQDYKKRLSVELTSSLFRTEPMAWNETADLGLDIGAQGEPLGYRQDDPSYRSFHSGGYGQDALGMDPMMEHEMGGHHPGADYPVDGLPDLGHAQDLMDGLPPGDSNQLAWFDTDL

[2] = target: T2, beta-catenin/TCF4 engagement (Homo sapiens, UniProt P35222); assay: Nano-BRET target engagement assay (B-cat-Halo & TCF4-Luc in HEK293 cells); assay type: cell-based; conditions: absolute IC50; read-out: NanoBRET Abs IC50
T2 construct: expressed in transfected cells; host or cells: HEK293
T2 sequence (P35222 1-781): T1 sequence (P35222 1-781)

SMILES | IC50 [1] [nM] | IC50 [2] [nM]
CC(=O)N1CCC[C@]12CC=CCCCC1(CCCC=CCCCOC(=O)N3CC[C@@](C(=O)N[C@@H](Cc4cccnc4)C(=O)N[C@@H](Cc4csc5ccccc45)C(=O)N[C@@H](CCC(N)=O)C(N)=O)(C3)NC(=O)[C@H](CC(C)C)NC(=O)[C@H](Cc3ccccc3)NC(=O)[C@H](C)NC(=O)[C@H](C)NC(=O)[C@H](CN(CC(=O)O)CC(F)(F)F)NC(=O)[C@H](CC(=O)O)NC1=O)NC(=O)[C@H](CC(C)(C)C)NC(=O)[C@H](CC(=O)O)NC2=O (stereo partly drawn) [I-1701, Ac-PL3-Asp-Npg-B5-Asp-TfeGA-Ala-Ala-Phe-Leu-PyrS2-3PyrA-BztA-Gln-NH2] | 25 | 24800
CC(=O)N1CCC[C@]12CC=CCCCC1(CCCC=CCCCOC(=O)N3CC[C@@](C(=O)N[C@@H](Cc4ccccc4C#N)C(=O)N[C@@H](Cc4csc5ccccc45)C(=O)N[C@@H](CCC(N)=O)C(N)=O)(C3)NC(=O)[C@H](CC(C)C)NC(=O)[C@H](Cc3ccccc3)NC(=O)[C@H](C)NC(=O)[C@H](C)NC(=O)[C@H](CN(CC(=O)O)CC(F)(F)F)NC(=O)[C@H](CC(=O)O)NC1=O)NC(=O)[C@H](CC(C)(C)C)NC(=O)[C@H](CC(=O)O)NC2=O (stereo partly drawn) [I-1702, Ac-PL3-Asp-Npg-B5-Asp-TfeGA-Ala-Ala-Phe-Leu-PyrS2-2CNF-BztA-Gln-NH2] | 17 | 6900
CC(=O)N1CCC[C@]12CC=CCCCC1(CCCC=CCCCOC(=O)N3CC[C@@](C(=O)N[C@@H](Cc4ccccc4C(F)(F)F)C(=O)N[C@@H](Cc4csc5ccccc45)C(=O)N[C@@H](CCC(N)=O)C(N)=O)(C3)NC(=O)[C@H](CC(C)C)NC(=O)[C@H](Cc3ccccc3)NC(=O)[C@H](C)NC(=O)[C@H](C)NC(=O)[C@H](CN(CC(=O)O)CC(F)(F)F)NC(=O)[C@H](CC(=O)O)NC1=O)NC(=O)[C@H](CC(C)(C)C)NC(=O)[C@H](CC(=O)O)NC2=O (stereo partly drawn) [I-1704, Ac-PL3-Asp-Npg-B5-Asp-TfeGA-Ala-Ala-Phe-Leu-PyrS2-2F3MeF-BztA-Gln-NH2] | 37 | 5300
CC(=O)N1CCC[C@]12CC=CCCCC1(CCCC=CCCCOC(=O)N3CC[C@@](C(=O)N[C@@H](Cc4ccsc4)C(=O)N[C@@H](Cc4csc5ccccc45)C(=O)N[C@@H](CC(N)=O)C(N)=O)(C3)NC(=O)[C@H](CC(C)C)NC(=O)[C@H](Cc3ccccc3)NC(=O)[C@H](C)NC(=O)[C@H](C)NC(=O)[C@H](CN(CC(=O)O)CC(F)(F)F)NC(=O)[C@H](CC(=O)O)NC1=O)NC(=O)[C@H](CC(C)(C)C)NC(=O)[C@H](CC(=O)O)NC2=O (stereo partly drawn) [I-1705, Ac-PL3-Asp-Npg-B5-Asp-TfeGA-Ala-Ala-Phe-Leu-PyrS2-3Thi-BztA-Asn-NH2] | 9 | 2900
CC(=O)N1CCC[C@]12CC=CCCCC1(CCCC=CCCCOC(=O)N3CC[C@@](C(=O)N[C@@H](Cc4ccsc4)C(=O)N[C@@H](Cc4csc5ccccc45)C(=O)N[C@@H](Cc4ccccc4C(N)=O)C(N)=O)(C3)NC(=O)[C@H](CC(C)C)NC(=O)[C@H](Cc3ccccc3)NC(=O)[C@H](C)NC(=O)[C@H](C)NC(=O)[C@H](CN(CC(=O)O)CC(F)(F)F)NC(=O)[C@H](CC(=O)O)NC1=O)NC(=O)[C@H](CC(C)(C)C)NC(=O)[C@H](CC(=O)O)NC2=O (stereo partly drawn) [I-1707, Ac-PL3-Asp-Npg-B5-Asp-TfeGA-Ala-Ala-Phe-Leu-PyrS2-3Thi-BztA-2cbmf-NH2] | 19 | 6100
CC(=O)N1CCC[C@]12CC=CCCCC1(CCCC=CCCCOC(=O)N3CC[C@@](C(=O)N[C@@H](Cc4ccsc4)C(=O)N[C@@H](Cc4csc5ccccc45)C(=O)N[C@@H](Cc4cccc(C(N)=O)c4)C(N)=O)(C3)NC(=O)[C@H](CC(C)C)NC(=O)[C@H](Cc3ccccc3)NC(=O)[C@H](C)NC(=O)[C@H](C)NC(=O)[C@H](CN(CC(=O)O)CC(F)(F)F)NC(=O)[C@H](CC(=O)O)NC1=O)NC(=O)[C@H](CC(C)(C)C)NC(=O)[C@H](CC(=O)O)NC2=O (stereo partly drawn) [I-1708, Ac-PL3-Asp-Npg-B5-Asp-TfeGA-Ala-Ala-Phe-Leu-PyrS2-3Thi-BztA-3cbmf-NH2] | 29 | 11900
CC(=O)N1CCC[C@]12CC=CCCCC1(CCCC=CCCCOC(=O)N3CC[C@@](C(=O)N[C@@H](Cc4ccccc4Cl)C(=O)N[C@@H](Cc4csc5ccccc45)C(=O)N[C@@H](CCC(N)=O)C(N)=O)(C3)NC(=O)[C@H](CC(N)=O)NC(=O)[C@H](Cc3ccccc3)NC(=O)[C@H](C)NC(=O)[C@H](C)NC(=O)[C@H](CC(=O)O)NC(=O)[C@H](CC(=O)O)NC1=O)NC(=O)[C@H](CC(C)(C)C)NC(=O)[C@H](CC(=O)S)NC2=O (stereo partly drawn) [I-1721, Ac-PL3-AspSH-Npg-B5-Asp-Asp-Ala-Ala-Phe-Asn-PyrS2-2C1F-BztA-Gln-NH2] | 139 | > 20000
CC(=O)N1CCC[C@]12CC=CCCCC1(CCCC=CCCCOC(=O)N3CC[C@@](C(=O)N[C@@H](Cc4ccccc4Cl)C(=O)N[C@@H](Cc4csc5ccccc45)C(=O)N[C@@H](CCC(N)=O)C(N)=O)(C3)NC(=O)[C@H](CC(N)=O)NC(=O)[C@H](Cc3ccccc3)NC(=O)[C@H](C)NC(=O)[C@H](C)NC(=O)[C@H](CC(=O)O)NC(=O)[C@H](CC(=O)O)NC1=O)NC(=O)[C@H](CC(C)(C)C)NC(=O)[C@H](CC(=O)S)NC2=O (stereo partly drawn) [I-1722, Ac-PL3-AspSH-Npg-B5-Asp-Asp-Ala-Ala-Phe-Asn-PyrS2-2C1F-BztA-Gln-NH2] | 135 | > 20000

The remaining lines, values ahead:

IC50 [1] [nM] | IC50 [2] [nM] | SMILES
165 | > 20000 | CC(=O)N1CCC[C@]12CCCCCCC1(CCCCCCCCCCC[C@@](C)(C(=O)N[C@@H](Cc3ccsc3)C(=O)N[C@@H](Cc3csc4ccccc34)C(=O)N[C@@H](CCC(N)=O)C(N)=O)NC(=O)[C@H](CC(C)C)NC(=O)[C@H](Cc3ccccc3)NC(=O)[C@H](C)NC(=O)[C@H](C)NC(=O)[C@H](CN(CC(=O)O)CC(F)(F)F)NC(=O)[C@H](CC(=O)O)NC1=O)NC(=O)[C@H](CC(C)(C)C)NC(=O)[C@H](CC(=O)O)NC2=O (stereo partly drawn) [I-1698, Ac-PL3-Asp-Npg-B5-Asp-TfeGA-Ala-Ala-Phe-Leu-S8-3Thi-BztA-Gln-NH2]
16 | 4800 | CC(=O)N1CCC[C@]12CC=CCCCC1(CCCC=CCCCOC(=O)N3CC[C@@](C(=O)N[C@@H](Cc4ccccc4)C(=O)N[C@@H](Cc4csc5ccccc45)C(=O)N[C@@H](CCC(N)=O)C(N)=O)(C3)NC(=O)[C@H](CC(C)C)NC(=O)[C@H](Cc3ccccc3)NC(=O)[C@H](C)NC(=O)[C@H](C)NC(=O)[C@H](CN(CC(=O)O)CC(F)(F)F)NC(=O)[C@H](CC(=O)O)NC1=O)NC(=O)[C@H](CC(C)(C)C)NC(=O)[C@H](CC(=O)O)NC2=O (stereo partly drawn) [I-1700, Ac-PL3-Asp-Npg-B5-Asp-TfeGA-Ala-Ala-Phe-Leu-PyrS2-Phe-BztA-Gln-NH2]
232 | 33300 | CC(=O)N1CCC[C@]12CCCCCCC1(CCCCCCCCOC(=O)N3CC[C@@](C(=O)N[C@@H](Cc4ccccc4)C(=O)N[C@@H](Cc4csc5ccccc45)C(=O)N[C@@H](CCC(N)=O)C(N)=O)(C3)NC(=O)[C@H](CC(C)C)NC(=O)[C@H](Cc3ccccc3)NC(=O)[C@H](C)NC(=O)[C@H](C)NC(=O)[C@H](CN(CC(=O)O)CC(F)(F)F)NC(=O)[C@H](CC(=O)O)NC1=O)NC(=O)[C@H](CC(C)(C)C)NC(=O)[C@H](CC(=O)O)NC2=O (stereo partly drawn) [I-1711, Ac-PL3-Asp-Npg-B5-Asp-TfeGA-Ala-Ala-Phe-Leu-PyrS2-Phe-BztA-Gln-NH2]
498 | > 20000 | CC(=O)N1CCC[C@]12CCCCCCC1(CCCCCCCCOC(=O)N3CC[C@@](C(=O)N[C@@H](CC4CCCC4)C(=O)N[C@@H](Cc4csc5ccccc45)C(=O)N[C@@H](CCC(N)=O)C(N)=O)(C3)NC(=O)[C@H](CC(C)C)NC(=O)[C@H](Cc3ccccc3)NC(=O)[C@H](C)NC(=O)[C@H](C)NC(=O)[C@H](CN(CC(=O)O)CC(F)(F)F)NC(=O)[C@H](CC(=O)O)NC1=O)NC(=O)[C@H](CC(C)(C)C)NC(=O)[C@H](CC(=O)O)NC2=O (stereo partly drawn) [I-1713, Ac-PL3-Asp-Npg-B5-Asp-TfeGA-Ala-Ala-Phe-Leu-PyrS2-CypA-BztA-Gln-NH2]
372 | 28600 | CC(=O)N1CCC[C@]12CCCCCCC1(CCCCCCCCOC(=O)N3CC[C@@](C(=O)N[C@@H](Cc4ccccc4C(F)(F)F)C(=O)N[C@@H](Cc4csc5ccccc45)C(=O)N[C@@H](CCC(N)=O)C(N)=O)(C3)NC(=O)[C@H](CC(C)C)NC(=O)[C@H](Cc3ccccc3)NC(=O)[C@H](C)NC(=O)[C@H](C)NC(=O)[C@H](CN(CC(=O)O)CC(F)(F)F)NC(=O)[C@H](CC(=O)O)NC1=O)NC(=O)[C@H](CC(C)(C)C)NC(=O)[C@H](CC(=O)O)NC2=O (stereo partly drawn) [I-1714, Ac-PL3-Asp-Npg-B5-Asp-TfeGA-Ala-Ala-Phe-Leu-PyrS2-2F3MeF-BztA-Gln-NH2]
